In PubChem BioAssay (NCI):
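How tested: cells in 96-well plates exposed to compound for 48 hours at five concentrations. GI50 marks 50% less growth. TGI denotes the concentration required for complete inhibition of growth.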

What was measured:
Experiment in all cases: DTP human tumour cell line panel, 48 h
SN12C renal = test system: SN12C renal
A549 NSCLC = test system: A549 NSCLC
A498 renal = test system: A498 renal
CCRF-CEM leukemia = test system: CCRF-CEM leukemia
SNB-19 CNS = test system: SNB-19 CNS
SK-MEL-2 melanoma = test system: SK-MEL-2 melanoma
T-47D breast = test system: T-47D breast
TK-10 renal = test system: TK-10 renal
UO-31 renal = test system: UO-31 renal
U251 CNS = test system: U251 CNS
NCI-H23 lung = test system: NCI-H23 lung
NCI-H460 lung = test system: NCI-H460 lung
COLO 205 colon = test system: COLO 205 colon
SF-539 CNS = test system: SF-539 CNS
OVCAR-4 ovarian = test system: OVCAR-4 ovarian
BT-549 breast = test system: BT-549 breast
RPMI-8226 leukemia = test system: RPMI-8226 leukemia
OVCAR-5 ovarian = test system: OVCAR-5 ovarian
HOP-62 NSCLC = test system: HOP-62 NSCLC
MALME-3M melanoma = test system: MALME-3M melanoma
HCT-116 colon = test system: HCT-116 colon
SNB-75 CNS = test system: SNB-75 CNS
SK-OV-3 ovarian = test system: SK-OV-3 ovarian
UACC-62 melanoma = test system: UACC-62 melanoma
UACC-257 melanoma = test system: UACC-257 melanoma
RXF 393 renal = test system: RXF 393 renal
LOX IMVI melanoma = test system: LOX IMVI melanoma
SF-295 CNS = test system: SF-295 CNS
MDA-MB-231 breast = test system: MDA-MB-231 breast
PC-3 prostate = test system: PC-3 prostate
NCI-H226 lung = test system: NCI-H226 lung
SR leukemia = test system: SR leukemia
SF-268 CNS = test system: SF-268 CNS
HS 578T breast = test system: HS 578T breast
HL-60(TB) leukemia = test system: HL-60(TB) leukemia
DU-145 prostate = test system: DU-145 prostate
SK-MEL-5 melanoma = test system: SK-MEL-5 melanoma

Molecule O=C(Nc1ccc(Br)cc1)Nc1nc2ccc([N+](=O)[O-])cc2s1 has a GI50 (SN12C renal) of 1530 nM, a TGI (SN12C renal) of 4650 nM and a GI50 (A549 NSCLC) of 1860 nM. The TGI (A549 NSCLC) was 6900 nM, the GI50 (A498 renal) was 192 nM and the TGI (A498 renal) was 785 nM. It also gave a GI50 (CCRF-CEM leukemia) of 377 nM, a TGI (CCRF-CEM leukemia) of 2740 nM and a GI50 (SNB-19 CNS) of 1180 nM. It also gave a TGI (SNB-19 CNS) of 4070 nM, a GI50 (SK-MEL-2 melanoma) of 1260 nM and a TGI (SK-MEL-2 melanoma) of 3000 nM. The GI50 (T-47D breast) was 573 nM, the TGI (T-47D breast) was 3380 nM and the GI50 (TK-10 renal) was 1890 nM. For the same molecule, the TGI (TK-10 renal) was 4750 nM, the GI50 (UO-31 renal) was 1490 nM and the TGI (UO-31 renal) was 4740 nM. For the same molecule, the GI50 (U251 CNS) was 1200 nM, the TGI (U251 CNS) was 4260 nM and the GI50 (NCI-H23 lung) was 926 nM. It also gave a TGI (NCI-H23 lung) of 2500 nM, a GI50 (NCI-H460 lung) of 1280 nM and a TGI (NCI-H460 lung) of 3080 nM. The GI50 (COLO 205 colon) was 1640 nM, the TGI (COLO 205 colon) was 3150 nM and the GI50 (SF-539 CNS) was 1310 nM. For the same molecule, the TGI (SF-539 CNS) was 3080 nM, the GI50 (OVCAR-4 ovarian) was 1130 nM and the TGI (OVCAR-4 ovarian) was 3820 nM. It also gave a GI50 (BT-549 breast) of 1520 nM, a TGI (BT-549 breast) of 3270 nM and a GI50 (RPMI-8226 leukemia) of 425 nM. For the same molecule, the TGI (RPMI-8226 leukemia) was 1700 nM, the GI50 (OVCAR-5 ovarian) was 2080 nM and the TGI (OVCAR-5 ovarian) was 5070 nM. For the same molecule, the GI50 (HOP-62 NSCLC) was 1880 nM, the TGI (HOP-62 NSCLC) was 5040 nM and the GI50 (MALME-3M melanoma) was 792 nM. The TGI (MALME-3M melanoma) was 3490 nM, the GI50 (HCT-116 colon) was 875 nM and the TGI (HCT-116 colon) was 2370 nM. For the same molecule, the GI50 (SNB-75 CNS) was 1070 nM, the TGI (SNB-75 CNS) was 3000 nM and the GI50 (SK-OV-3 ovarian) was 1590 nM. The TGI (SK-OV-3 ovarian) was 6750 nM, the GI50 (UACC-62 melanoma) was 1070 nM and the TGI (UACC-62 melanoma) was 3600 nM. For the same molecule, the GI50 (UACC-257 melanoma) was 1430 nM, the TGI (UACC-257 melanoma) was 4110 nM and the GI50 (RXF 393 renal) was 862 nM. For the same molecule, the TGI (RXF 393 renal) was 2410 nM, the GI50 (LOX IMVI melanoma) was 1340 nM and the TGI (LOX IMVI melanoma) was 2670 nM. The GI50 (SF-295 CNS) was 1270 nM, the TGI (SF-295 CNS) was 2950 nM and the GI50 (MDA-MB-231 breast) was 1470 nM. The TGI (MDA-MB-231 breast) was 3500 nM, the GI50 (PC-3 prostate) was 542 nM and the TGI (PC-3 prostate) was 2080 nM. The GI50 (NCI-H226 lung) was 1440 nM, the TGI (NCI-H226 lung) was 3090 nM and the GI50 (SR leukemia) was 474 nM. The TGI (SR leukemia) was 2280 nM, the GI50 (SF-268 CNS) was 1690 nM and the TGI (SF-268 CNS) was 5440 nM. It also gave a GI50 (HS 578T breast) of 1470 nM, a TGI (HS 578T breast) of 3990 nM and a GI50 (HL-60(TB) leukemia) of 1020 nM. The TGI (HL-60(TB) leukemia) was 2750 nM, the GI50 (DU-145 prostate) was 1730 nM and the TGI (DU-145 prostate) was 4680 nM. It also gave a GI50 (SK-MEL-5 melanoma) of 696 nM and a TGI (SK-MEL-5 melanoma) of 2030 nM.
